Measured values from patent US12404261B2, “Compounds and compositions for treating conditions associated with cGAS” (Novartis AG, priority 2020, dated 2025).

Target: human truncated cGAS enzyme (147-522 human cGAS) (Homo sapiens (Human), UniProt Q8N884)
Experiment: Quantification of cGAS protein inhibition (cGAMP formation measured by LC-MS/MS)
Format: biochemical
Settings: reported for the potential mixture of co-existing tautomers and/or racemates
Method: A reagent buffer was prepared in filtered and autoclaved water according to the following: • 50 mM Tris-buffer pH 7.5 (1 M Tris-buffer pH 7.5, Invitrogen, Cat. No. 15567-027); • 50 mM NaCl (5 M NaCl, Sodium Chloride Solution, Sigma, 59222C-); • 5 mM MgCl2 (1 M MgCl2, Sigma, M1028); • 0.1 mM ZnCl2 (Zinc Chloride [7646-85-7], powder, Cell Culture Tested, Sigma, Z-0152); and • 0.001% Tween 20 (TWEEN 20, Sigma Aldrich, P1379-).
A buffer for the cGAS enzyme was prepared in filtered and autoclaved water according to the following: • 50 mM Tris-buffer pH 7.5; • 5 mM MgCl2; and • 0.001% Tween 20.
Compounds were dispensed to a […]. The human truncated cGAS enzyme (4.2 mg/mL 147-522 human cGAS, MW 43,909 g/mol) was stored in 50 mM Tris, 500 mM NaCl, 5% (v/v) glycerol at pH 8 and diluted in the cGAS buffer enzyme shortly before use. The enzyme solution was transferred into the reagent buffer to give a final concentration of 30 nM. The reaction was started by mixing the enzyme with ISD (a 45 bp double stranded DNA, MW 27,670 g/mol, 5 mM), GTP and ATP to a final concentration of 5 μM, 0.5 mM and 0.5 mM respectively in a final volume of 10 μl. The reaction plates were then centrifuged at 1000 rpm for 1 minute and incubated at room temperature for 1 h. After 1 h of incubation, [^5Ns]-2′3′-cGAMP to a final concentration of 200 nM and 30 μL of 100% acetonitrile/0.175% of TFA were added to the reaction mixture. The plates were centrifuged at 1000 rpm for 1 minute before being sealed for 3 seconds at 170° C. using a ThermoScientific sealer (ALPS™ 50V) and an aluminum sealing cover (Pierce Seal, 4titude, Product Code: 4TI-0531).
The concentration of cGAMP was measured on a LC-MS/MS system consisting of a THERMO Dionex Ultimate LC system with a high pressure pump, an autosampler, a column heating compartment (Reinach, Switzerland) and a SCIEX Triple Quad 5500 (Framingham, MA, USA) mass spectrometer for detection. The sample plates were centrifuged for 10 minutes at 2000 rpm. Up to three plates were placed in the autosampler for injection. An aliquot of 10 μL of each sample was injected on an XBridge BEH Amide 3.5 μm, 2.1×50 mm column (P/N 186004859) with an XBridge BEH Amide 5 μm 2.1×5 mm VanGuard Cartridge (P/N 186007760) pre-column (both WATERS, MA, USA) held at 40° C. An isocratic flow of 1.0 mL/min solvent (60% ACN, 8 mM ammonium acetate, 5 mM ammonium hydroxide, 0.04% acetic acid) was applied and sprayed into the ion source of the mass spectrometers. The MS parameters were optimized based on the properties of the compounds to be detected and run in positive multi-reaction mode (MRM) based on the mass transitions. LC and MS parameters were also optimized to allow for a sample-to-sample measuring time of approximately 75 sec and a run time of 8 hours per 384-well plate. All data were analyzed with Excel; and the dose response curves were generated using the auto fitting function of XLfit. The IC50 was determined by plotting the cGAMP concentration ratio (cGAMP divided by the internal standard [^15Ns]-2′3′-cGAMP) versus the concentration of compound.

Sequence of human truncated cGAS enzyme (147-522 human cGAS) (Q8N884 147-522): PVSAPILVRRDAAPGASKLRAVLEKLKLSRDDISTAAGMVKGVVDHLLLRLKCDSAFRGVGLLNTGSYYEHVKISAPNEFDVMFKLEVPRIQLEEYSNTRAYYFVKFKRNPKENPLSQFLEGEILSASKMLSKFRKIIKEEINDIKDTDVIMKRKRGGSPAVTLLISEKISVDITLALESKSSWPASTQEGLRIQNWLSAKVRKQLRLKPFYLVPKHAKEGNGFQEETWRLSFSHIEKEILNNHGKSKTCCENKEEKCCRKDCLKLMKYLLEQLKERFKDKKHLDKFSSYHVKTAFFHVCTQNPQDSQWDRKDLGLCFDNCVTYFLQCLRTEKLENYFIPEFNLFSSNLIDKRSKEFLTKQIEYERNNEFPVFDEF

IC50 | SMILES
55 nM | COCC(F)(F)c1nnc(-c2c(-n3ccnc3)c3cc(OC)c(Cl)c(C#N)c3n2C)[nH]1 [Example 55, 6-chloro-2-(5-(1,1-difluoro-2-methoxyethyl)-4H-1,2,4-triazol-3-yl)-3-(1H-imidazol-1-yl)-5-methoxy-1-methyl-1H-indole-7-carbonitrile]
56 nM | COc1cc2c(-n3ccnc3)c(-c3nnc(CS(C)(=O)=O)[nH]3)n(C)c2c(F)c1Cl [Example 56, 6-Chloro-7-fluoro-3-(1H-imidazol-1-yl)-5-methoxy-1-methyl-2-(5-((methylsulfonyl)methyl)-4H-1,2,4-triazol-3-yl)-1H-indole]
30 nM | COCC(=O)c1nnc(-c2[nH]c3c(F)c(Cl)c(OC)cc3c2-c2cn[nH]c2)[nH]1 [Example 57, 1-(5-(6-chloro-7-fluoro-5-methoxy-3-(1H-pyrazol-4-yl)-1H-indol-2-yl)-4H-1,2,4-triazol-3-yl)-2-methoxyethan-1-one]
30 nM | COc1cc2c(-c3cn[nH]c3)c(-c3nnc(F)[nH]3)n(C)c2c(F)c1Cl [Example 58, 6-chloro-7-fluoro-2-(5-fluoro-4H-1,2,4-triazol-3-yl)-5-methoxy-1-methyl-3-(1H-pyrazol-4-yl)-1H-indole]
78 nM | COc1cc2c(-c3cn[nH]c3)c(-c3nnc(N4CCOCC4)[nH]3)n(C)c2c(F)c1Cl [Example 59, 4-(5-(6-chloro-7-fluoro-5-methoxy-1-methyl-3-(1H-pyrazol-4-yl)-1H-indol-2-yl)-4H-1,2,4-triazol-3-yl)morpholine]
32 nM | COc1cc2c(-c3cn[nH]c3)c(-c3nnc(C(C)=O)[nH]3)n(C)c2c(F)c1Cl [Example 60, 1-(5-(6-chloro-7-fluoro-5-methoxy-1-methyl-3-(1H-pyrazol-4-yl)-1H-indol-2-yl)-4H-1,2,4-triazol-3-yl)ethan-1-one]
41 nM | COc1cc2c(-c3cn[nH]c3)c(-c3nnc(N(C)C(C)=O)[nH]3)n(C)c2c(F)c1Cl [Example 61, N-(5-(6-chloro-7-fluoro-5-methoxy-1-methyl-3-(1H-pyrazol-4-yl)-1H-indol-2-yl)-4H-1,2,4-triazol-3-yl)-N-methylacetamide]
60 nM | COCC(=O)N(C)c1nnc(-c2c(-c3cn[nH]c3)c3cc(OC)c(Cl)c(F)c3n2C)[nH]1 [Example 62, N-(5-(6-chloro-7-fluoro-5-methoxy-1-methyl-3-(1H-pyrazol-4-yl)-1H-indo1-2-yl)-4H-1,2,4-triazol-3-yl)-2-methoxy-N-methylacetamide]
54 nM | COc1cc2c(-c3cn[nH]c3)c(-c3nnc(N(C)CCO)[nH]3)n(C)c2c(F)c1Cl [Example 63, 2-((5-(6-chloro-7-fluoro-5-methoxy-l-methyl-3-(1H-pyrazol-4-yl)-1H-indol-2-yl)-4H-1,2,4-triazol-3-yl)(methyl)amino)ethan-1-ol]
52 nM | COCC(O)c1nnc(-c2c(-c3cn[nH]c3)c3cc(OC)c(Cl)c(F)c3n2C)[nH]1 (stereo not shown) [Example 64, 1-(5-(6-chloro-7-fluoro-5-methoxy-1-methyl-3-(1H-pyrazol-4-yl)-1H-indol-2-yl)-4H-1,2,4-triazol-3-yl)-2-methoxyethan-1-ol]
31 nM | COCC(F)(F)c1nnc(-c2[nH]c3c(F)c(Cl)c(OC)cc3c2-c2cn[nH]c2)[nH]1 [Example 65, 6-chloro-2-(5-(1,1-difluoro-2-methoxyethyl)-4H-1,2,4-triazol-3-yl)-7-fluoro-5-methoxy-3-(1H-pyrazol-4-yl)-1H-indole]
30 nM | COCC(F)(F)c1nnc(-c2c(-c3cn[nH]c3)c3cc(OC)c(Cl)c(F)c3n2C)[nH]1 [Example 66, 6-chloro-2-(5-(1,1-difluoro-2-methoxyethyl)-4H-1,2,4-triazol-3-yl)-7-fluoro-5-methoxy-1-methyl-3-(1H-pyrazol-4-yl)-1H-indole]
30 nM | COc1cc2c(-c3cn[nH]c3)c(-c3nnc(C(C)(F)F)[nH]3)[nH]c2c(F)c1Cl [Example 67, 6-chloro-2-(5-(1,1-difluoroethyl)-4H-1,2,4-triazol-3-yl)-7-fluoro-5-methoxy-3-(1H-pyrazol-4-yl)-1H-indole]
